Literature values in US20040101549A1, “Treatments” (priority 2002, published 2004).

polyestradiol phosphate [PEP]
overall and cardiovascular mortality versus maximum androgen blockade (915 patients randomized, over 6 years, Hedlund & Henriksson): equivalent | long-term cardiovascular protection (epidemiological comparison to an age-standardized population, Aro): significant long-term cardiovascular protection | reduction of short-term cardiovascular morbidity (intramuscular, first line CaP therapy, Mikkola et al): over 90%
